Patent publication US11406713B2, “Xanthine oxidase inhibitor formulations” (XORTX THERAPEUTICS, INC., priority 2013, dated 2022)

What was measured:
[1] = background statement; cited from earlier work
[2] = background statement; cited from earlier work; remark: listed apart in the source
[3] = equilibrium solubility and dissolution profile of oxypurinol in aqueous solution; assay type: physicochemical; conditions: for equilibrium solubility, dissolution and solubility: compared to oxypurinol free acid (FIG. 1)

equilibrium solubility, dissolution and solubility ([3]; aqueous solution, in the presence of a 1 molar equivalent of lysine, FIG. 2) | equilibrium solubility, dissolution ([3]; in choline, FIG. 4) | equilibrium solubility, dissolution and solubility ([3]; in the presence of a 1 molar equivalent of L-arginine, FIG. 3) | Structure (SMILES) | solubility [1] | bioavailability [2] | equilibrium solubility, dissolution rate and solubility ([3]; using organic and or basic organic molecules, in aqueous solutions, compared to oxypurinol free acid)
– | – | – | Oc1ncnc2[nH]ncc12 [Allopurinol, 4-hydroxy-pyrazolo[3,4-d]pyrimidine] | poorly soluble | poorly bioavailable | –
increased dissolution and solubility | increased dissolution | increased dissolution and solubility | O=c1[nH]c(=O)c2c[nH]nc2[nH]1 [oxypurinol, 4,6-dihydroxypyrazolo[3,4-d]pyrimidine] | poorly soluble | poorly bioavailable | increased equilibrium solubility, increased dissolution rate and solubility
